Assay results: patent EP4800013A1, “PARG INHIBITOR” (Shanghai Qilu Pharmaceutical Research and Development …, priority 2023, dated 2025)

What was measured:
PARG = biological target: T1, PARG (Homo sapiens, UniProt Q86W56); assay: Enzymatic inhibitory activity against PARG, HTRF assay; format: biochemical; conditions: HTRF; PARylated PARP1 protein as substrate; 60 minutes at room temperature; read-out: IC50 against PARG enzyme
T1 construct: made in house
Protocol: In this experiment, the enzymatic inhibitory activity of the compounds of the present disclosure against PARG was determined using an HTRF (homogeneous time-resolved fluorescence) assay.
HTRF assay reagents were purchased from PerkinElmer (Cat. Nos. 61HISTLB and 610SAXLB). The purified protein was prepared in-house.
PARG enzyme reaction buffer: 50 mM Tris (pH 7.4), 0.1 mg/mL BSA, 3 mM EDTA, 0.4 mM EGTA, 1 mM DTT, 50 mM KCl, and 0.01% Tween 20.
• 1) Using an ultra-micro pipette, the compounds of the present disclosure were serially diluted (starting at 10 µM with 3- to 5-fold serial dilutions) and added to a 384-well reaction plate, with each concentration tested in duplicate wells. Control group 1 was added with 10 µM control compound (100% inhibition group). Control group 2 was added with DMSO (0% inhibition group). After compound addition, the 384-well plate was centrifuged at 1000 rpm for 1 minute. • 2) 2.5 µL of PARG protein was added to each well and incubated with the compounds of the present disclosure at room temperature for 15 minutes, followed by centrifugation at 1000 rpm for 1 minute. • 3) 2.5 µL of PARylated PARP1 protein was added to each well and incubated at room temperature for 60 minutes, followed by centrifugation at 1000 rpm for 1 minute. • 4) 5 µL of His-Tb & SA-XL665 HTRF assay reagents were added to each well and incubated at room temperature for 60 minutes, followed by centrifugation at 1000 rpm for 1 minute. • 5) […] were measured using a PHERAstar FSX microplate reader from BMG. • 6) Data analysis was performed using GraphPad Prism 8. The IC50 values of the compounds of the present disclosure were calculated as follows. […] The average value of duplicate wells in control group 2 (0% inhibition group) was set as the relative inhibition rate of 0%. The HTRF signal values were converted into relative inhibition rates. The IC50 values of the compounds were calculated by fitting the data to a four-parameter logistic model. Table 15: Enzymatic inhibitory activity of the compounds of the present disclosure against PARG

KURAMOCHI cells = assay: Inhibition of proliferation of KURAMOCHI cells (CellTiter-Glo, intracellular ATP); format: cell-based; conditions: 168 h, incubated for 7 days, read-out: IC50 against KURAMOCHI cells
Protocol: In this experiment, the inhibitory effect of the compounds of the present disclosure on the proliferation of the cancer cell line KURAMOCHI was evaluated by measuring intracellular ATP levels using a bioluminescent assay, and the half maximal inhibitory concentration (IC50) was determined.
RPMI 1640 medium (Cat. No. 11875-093), fetal bovine serum (10099-141), and 100× Pen/Strep (15070-063) were purchased from GIBCO. CellTiter-Glo Luminescent Cell Viability Assay reagent (Cat. No. G7573) was purchased from Promega.
• 1) Day 1: KURAMOCHI cells were counted using a cell counter and seeded into a 96-well culture plate at a density of 4000 cells per well in 100 µL medium. The plate was incubated overnight in an incubator (37°C, 5% CO2). • 2) Day 2: Using a D300e digital dispenser (TECAN), 500 nL of serially diluted test compounds of the present disclosure (starting at 10 µM, a total of 9 concentrations, 1:4 dilution) were added to the cells in the culture plate. The final concentration of DMSO was 0.5%. The cell culture plate was incubated for 7 days in a cell culture incubator (37°C, 5% CO2). Control group 1 received only medium and DMSO (100% inhibition group). Control group 2 received only DMSO (0% inhibition group). The final concentration of DMSO in both groups was 0.5%. • 3) Day 9: 100 µL of CellTiter-Glo reagent was added to each well. The plate was shaken at 500 rpm for 2 minutes, centrifuged at 1000 rpm for 1 minute, and then incubated at room temperature in the dark for 10 minutes to stabilize the luminescence signal. • 4) Luminescence signals were measured using an EnVision microplate reader (PerkinElmer). • 5) Data analysis was performed using GraphPad Prism 8. The IC50 values of the compounds of the present disclosure were calculated as follows. The CTG signal values were analyzed. The average inhibition rate of control group 1 (100% inhibition group) was set as the relative inhibition rate of 100%. The average inhibition rate of control group 2 (0% inhibition group) was set as the relative inhibition rate of 0%. The CTG signal values were converted into relative inhibition rates. The inhibition percentage (inhibition%) for each concentration of the compounds of the present disclosure was calculated according to the following formula: Inhibition% = (b−x)/(b−a)*100%; [formula] • a = CTG value (highest concentration), b = CTG value (blank well), x = CTG value (test well). • IC50 was calculated using GraphPad Prism 8. • (1) The concentration and inhibition rate corresponding to each well were recorded. Statistical calculation was performed using Log10 (compound concentration). • (2) The data were input into GraphPad Prism 8 and Analysis was selected. • (3) Nonlinear regression (curve fit) was selected. • (4) Log (inhibitor) vs. response - Variable slope was selected. • (5) The calculation formula was selected, and the calculation was performed according to the following formula: Y = Bottom + (Top - Bottom) / (1 + 10 ^ ((LogIC50 - X) * HillSlope)); X: log of dose or concentration; Y: response; Top and Bottom: maximum and minimum response. • (6) The IC50 values were calculated by fitting the data. Table 16: Inhibitory effect of the compounds of the present disclosure on the proliferation of KURAMOCHI cells

T1 sequence (Q86W56 whole entry): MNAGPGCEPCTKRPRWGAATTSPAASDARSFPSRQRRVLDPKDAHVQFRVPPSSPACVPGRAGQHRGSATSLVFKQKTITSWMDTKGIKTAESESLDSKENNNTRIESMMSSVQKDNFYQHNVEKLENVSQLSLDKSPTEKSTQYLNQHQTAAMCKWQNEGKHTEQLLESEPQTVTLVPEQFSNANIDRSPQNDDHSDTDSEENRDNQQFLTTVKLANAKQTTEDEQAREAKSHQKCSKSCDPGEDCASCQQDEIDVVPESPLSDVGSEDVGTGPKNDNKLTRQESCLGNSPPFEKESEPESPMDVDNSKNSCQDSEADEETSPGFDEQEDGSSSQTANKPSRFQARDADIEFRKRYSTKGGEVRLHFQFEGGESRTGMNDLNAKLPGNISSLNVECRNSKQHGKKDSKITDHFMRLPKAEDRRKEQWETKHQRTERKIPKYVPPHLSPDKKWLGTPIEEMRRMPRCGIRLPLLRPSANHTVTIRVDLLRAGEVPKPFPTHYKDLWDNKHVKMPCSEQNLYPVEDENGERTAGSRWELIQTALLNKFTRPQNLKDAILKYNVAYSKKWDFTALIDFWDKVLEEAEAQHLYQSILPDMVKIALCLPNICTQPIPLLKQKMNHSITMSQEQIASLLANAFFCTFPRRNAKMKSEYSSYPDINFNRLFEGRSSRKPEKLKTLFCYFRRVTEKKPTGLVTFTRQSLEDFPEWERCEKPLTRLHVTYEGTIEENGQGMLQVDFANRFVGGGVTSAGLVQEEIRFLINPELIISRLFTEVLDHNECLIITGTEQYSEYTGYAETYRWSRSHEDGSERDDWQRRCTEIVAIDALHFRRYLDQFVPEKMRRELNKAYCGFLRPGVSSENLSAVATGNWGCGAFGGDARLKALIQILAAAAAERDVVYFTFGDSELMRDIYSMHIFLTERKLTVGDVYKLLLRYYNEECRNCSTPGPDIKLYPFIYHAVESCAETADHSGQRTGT

Row | SMILES | IC50 (PARG) | IC50 (KURAMOCHI cells)
1 | C=CCn1c(=O)n(-c2nnc(C(F)F)s2)c2cc(S(=O)(=O)NC3(C#N)CC3)cc(N3CCN(C(=O)[C@@H](C)CC)CC3)c21 [Compound 067W2] | 13.1 nM | 11 nM
2 | C=CCn1c(=O)n(-c2nnc(C(F)F)s2)c2cc(S(=O)(=O)NC3(C#N)CC3)cc(N3CCN(C(=O)[C@H](C)CC)CC3)c21 [Compound 067Wl] | 19.7 nM | 23 nM
3 | C=CCn1c(=O)n(-c2nnc(C(F)F)s2)c2cc(S(=O)(=O)NC3(C#N)CC3)cc(N3CCN(C(=O)C4CCCC4)CC3)c21 [Compound 067X] | 21.1 nM | 23 nM
4 | C=CCn1c(=O)n(-c2nnc(C(F)F)s2)c2cc(S(=O)(=O)NC3(C#N)CC3)cc(N3CCN(C(=O)C4(C)CC4)CC3)c21 [Compound 067Y] | 21.2 nM | 34 nM
5 | C=CCn1c(=O)n(-c2nnc(C(F)F)s2)c2cc(S(=O)(=O)NC3(CF)CC3)cc(N3CCN(C(=O)C(C)C)CC3)c21 [Compound 068A] | 3.5 nM | 4 nM
6 | C=CCn1c(=O)n(-c2nnc(C(F)F)s2)c2cc(S(=O)(=O)NC3(C)COC3)cc(N3CCN(C(=O)C(C)C)CC3)c21 [Compound 068B] | 15.8 nM | 17 nM
7 | C=CCn1c(=O)n(-c2nnc(C(F)(F)F)s2)c2cc(S(=O)(=O)NC3(C#N)CC3)cc(N3CCN(C(=O)C(C)C)CC3)c21 [Compound 070A] | 15.3 nM | 18 nM
8 | C=CCn1c(=O)n(-c2nnc(C(F)(F)F)s2)c2cc(S(=O)(=O)NC3(C#N)CC3)cc(N3CCN(C(=O)C(C)(C)O)CC3)c21 [Compound 070B] | 20.3 nM | 25 nM
9 | C=CCn1c(=O)n(-c2nnc(C(F)F)s2)c2cc(S(=O)(=O)NC3(C#N)CC3)cc(N3CCN(C(=O)C(C)(C)O)[C@H](C)C3)c21 [Compound 071C2] | 8.9 nM | 50 nM
10 | C=CCn1c(=O)n(-c2nnc(C(F)F)s2)c2cc(S(=O)(=O)NC3(C#N)CC3)cc(N3CCN(C(=O)C4CCOC4)CC3)c21 (stereo not shown) [Compound 072B] | 15.9 nM | 53 nM
11 | C=CCn1c(=O)n(-c2nnc(C(F)F)s2)c2cc(S(=O)(=O)NC3(C#N)CC3)cc(N3CCN(C(=O)C(C)(O)C(F)(F)F)CC3)c21 (stereo not shown) [Compound 073A] | 30.6 nM | 34 nM
12 | C=CCn1c(=O)n(-c2nnc(C(F)F)s2)c2cc(S(=O)(=O)NC3(C#N)CC3)cc(N3CCN(C(=O)C4(O)CCC4)CC3)c21 [Compound 073B] | 4.5 nM | 22 nM
13 | C=CCn1c(=O)n(-c2nnc(C(F)F)s2)c2cc(S(=O)(=O)NC3(C#N)CC3)cc(N3CCN([S+]([O-])C(C)(C)C)CC3)c21 (stereo not shown) [Compound 074A-11] | 2.8 nM | 4 nM
14 | C=CCn1c(=O)n(-c2nnc(C(F)F)s2)c2cc(S(=O)(=O)NC3(C#N)CC3)cc(N3CCN(S(=O)(=O)C(C)(C)C)CC3)c21 [Compound 074A] | 0.8 nM | 1 nM
15 | C=CCn1c(=O)n(-c2nnc(C(F)F)s2)c2cc(S(=O)(=O)NC3(C#N)CC3)cc(N3CCN(S(=O)(=O)C4(C)CC4)CC3)c21 [Compound 074B] | 2.7 nM | 3 nM
16 | C=CCn1c(=O)n(-c2nnc(C(F)F)s2)c2cc(S(=O)(=O)NC3(C#N)CC3)cc(N3CCN(S(=O)(=O)C4CCOC4)CC3)c21 (stereo not shown) [Compound 074C] | 2.9 nM | 13 nM

Row | SMILES | IC50 (PARG) | IC50 (KURAMOCHI cells)
17 | C=CCn1c(=O)n(-c2nnc(C(F)F)s2)c2cc(S(=O)(=O)NC3(C#N)CC3)cc(N3CCN(S(=N)(=O)C(C)C)CC3)c21 (stereo not shown) [Compound 074G] | 3.3 nM | 40 nM
18 | C=CCn1c(=O)n(-c2nnc(C(F)F)s2)c2cc(S(=O)(=O)NC3(C#N)CC3)cc(N3CCN(S(=O)(=O)N(C)C)CC3)c21 [Compound 074H] | 7.5 nM | 12 nM
19 | C#CCn1c(=O)n(-c2nnc(C(F)F)s2)c2cc(S(=O)(=O)NC3(C#N)CC3)cc(N3CCN(C(=O)C(C)C)CC3)c21 [Compound 074K] | 1.9 nM | 8 nM
20 | C=CCn1c(=O)n(-c2nnc(C(F)F)s2)c2cc(S(=O)(=O)NC3(C#N)CC3)cc(N3CCN([S+]([O-])C(C)C)CC3)c21 (stereo not shown) [Compound 074M] | 6.2 nM | 16 nM
21 | C=CCn1c(=O)n(-c2nnc(C(F)F)s2)c2cc(S(=O)(=O)NC3(C#N)CC3)cc(N3CCN(C(=O)C4CCCN4C(=O)OC)CC3)c21 (stereo not shown) [Compound 076E] | 4.9 nM | 35 nM
22 | C=CCn1c(=O)n(-c2nnc(C(F)F)s2)c2cc(S(=O)(=O)NC3(C#N)CC3)cc(N3CCN(C(=O)[C@@H]4CCCO4)CC3)c21 [Compound 076H1] | 14.4 nM | 34 nM
23 | C=CCn1c(=O)n(-c2nnc(C(F)F)s2)c2cc(S(=O)(=O)NC3(C#N)CC3)cc(N3CCN(C(=O)[C@H]4CCCO4)CC3)c21 [Compound 076H2] | 14 nM | 40 nM
24 | C=CCn1c(=O)n(-c2nnc(C(F)F)s2)c2cc(S(=O)(=O)NC3(C#N)CC3)cc(N3CCN(C(=O)C4(C)CCCO4)CC3)c21 (stereo not shown) [Compound 076J] | 7 nM | 9 nM
25 | C[C@H]1CN(c2cc(S(=O)(=O)NC3(C#N)CC3)cc3c2nc(OC2CC2)n3-c2nnc(C(F)F)s2)C[C@H](C)N1 [Compound 077A] | 10.4 nM | 11 nM
26 | C[C@H]1CN(c2cc(S(=O)(=O)NC3(C)CC3)cc3c2nc(C2CCCO2)n3-c2nnc(C(F)F)s2)C[C@H](C)N1 (stereo partly shown) [Compound 077B] | 3.4 nM | 7 nM
27 | C[C@H]1CN(c2cc(S(=O)(=O)NC3(C)CC3)cc3c2nc(OC2CC2)n3-c2nnc(C(F)F)s2)C[C@H](C)N1 [Compound 077F] | 9.2 nM | 9 nM
28 | CC(C)Oc1nc2c(N3C[C@H](C)N[C@@H](C)C3)cc(S(=O)(=O)NC3(C)CC3)cc2n1-c1nnc(C(F)F)s1 [Compound 077G] | 1.6 nM | 2 nM
29 | CC(C)Oc1nc2c(N3C[C@H](C)N[C@@H](C)C3)cc(S(=O)(=O)NC3(C#N)CC3)cc2n1-c1nnc(C(F)F)s1 [Compound 077H] | 3 nM | 5 nM
30 | C[C@H]1CN(c2cc(S(=O)(=O)NC3(C)CC3)cc3c2nc(C2COCCO2)n3-c2nnc(C(F)F)s2)C[C@H](C)N1 (stereo partly shown) [Compound 077N] | 3.4 nM | 8 nM
31 | COCc1nc2c(N3C[C@H](C)N[C@@H](C)C3)cc(S(=O)(=O)NC3(C)CC3)cc2n1-c1nnc(C(F)F)s1 [Compound 077T] | 27.8 nM | 35 nM
32 | C[C@H]1CN(c2cc(S(=O)(=O)NC3(C)CC3)cc3c2nc(N2CCOCC2)n3-c2nnc(C(F)F)s2)C[C@H](C)N1 [Compound 077V] | 21.7 nM | 37 nM
